Source: the CheMixHub ionic liquid set

Test: xn = mol fraction of the nth substance listed
Conditions: 100 kPa

CCCCCCCC[n+]1ccccc1.[Br-] + CC(C)[C@H](N)C(=O)O + O
Conditions | electrical conductivity [S/m]
288.15 K, x2 = 0.0008935, x1 = 0.007418 | 1.31
288.15 K, x2 = 0.0008938, x1 = 0.007086 | 1.29
288.15 K, x2 = 0.0008942, x1 = 0.006704 | 1.26
288.15 K, x2 = 0.0008945, x1 = 0.006295 | 1.23
288.15 K, x2 = 0.0008949, x1 = 0.005851 | 1.19
288.15 K, x2 = 0.0008954, x1 = 0.005368 | 1.14
288.15 K, x2 = 0.0008958, x1 = 0.004839 | 1.08
288.15 K, x2 = 0.0008964, x1 = 0.004257 | 1.01
288.15 K, x2 = 0.0008969, x1 = 0.003625 | 0.906
288.15 K, x2 = 0.0008976, x1 = 0.002914 | 0.777
288.15 K, x2 = 0.0008982, x1 = 0.002179 | 0.624
288.15 K, x2 = 0.0008986, x1 = 0.001732 | 0.519
288.15 K, x2 = 0.0008991, x1 = 0.001237 | 0.396
288.15 K, x2 = 0.0008995, x1 = 0.0007528 | 0.27
288.15 K, x2 = 0.001786, x1 = 0.006884 | 1.26
288.15 K, x2 = 0.001787, x1 = 0.006555 | 1.23
288.15 K, x2 = 0.001788, x1 = 0.005847 | 1.16
288.15 K, x2 = 0.001788, x1 = 0.006214 | 1.19
288.15 K, x2 = 0.001789, x1 = 0.005457 | 1.12
288.15 K, x2 = 0.00179, x1 = 0.005019 | 1.08
288.15 K, x2 = 0.001791, x1 = 0.004547 | 1.02
288.15 K, x2 = 0.001792, x1 = 0.00402 | 0.951
288.15 K, x2 = 0.001793, x1 = 0.003446 | 0.852
288.15 K, x2 = 0.001794, x1 = 0.002816 | 0.736
288.15 K, x2 = 0.001795, x1 = 0.002155 | 0.601
288.15 K, x2 = 0.001796, x1 = 0.001258 | 0.39
288.15 K, x2 = 0.001796, x1 = 0.001677 | 0.494
288.15 K, x2 = 0.001797, x1 = 0.000791 | 0.274
293.15 K, x2 = 0.0008935, x1 = 0.007404 | 1.5
293.15 K, x2 = 0.0008938, x1 = 0.007072 | 1.47
293.15 K, x2 = 0.0008942, x1 = 0.00669 | 1.43
293.15 K, x2 = 0.0008945, x1 = 0.006282 | 1.39
293.15 K, x2 = 0.0008949, x1 = 0.005839 | 1.34
293.15 K, x2 = 0.0008954, x1 = 0.005359 | 1.29
293.15 K, x2 = 0.0008958, x1 = 0.00483 | 1.23
293.15 K, x2 = 0.0008964, x1 = 0.004248 | 1.15
293.15 K, x2 = 0.0008969, x1 = 0.003618 | 1.03
293.15 K, x2 = 0.0008976, x1 = 0.002909 | 0.878
293.15 K, x2 = 0.0008982, x1 = 0.002176 | 0.703
293.15 K, x2 = 0.0008986, x1 = 0.00173 | 0.585
293.15 K, x2 = 0.0008991, x1 = 0.001235 | 0.446
293.15 K, x2 = 0.0008995, x1 = 0.0007528 | 0.302
293.15 K, x2 = 0.001786, x1 = 0.006871 | 1.44
293.15 K, x2 = 0.001787, x1 = 0.006543 | 1.4
293.15 K, x2 = 0.001788, x1 = 0.005835 | 1.32
293.15 K, x2 = 0.001788, x1 = 0.006203 | 1.36
293.15 K, x2 = 0.001789, x1 = 0.005446 | 1.28
293.15 K, x2 = 0.00179, x1 = 0.00501 | 1.23
293.15 K, x2 = 0.001791, x1 = 0.004538 | 1.16
293.15 K, x2 = 0.001792, x1 = 0.004013 | 1.08
293.15 K, x2 = 0.001793, x1 = 0.003439 | 0.962
293.15 K, x2 = 0.001794, x1 = 0.002811 | 0.835
293.15 K, x2 = 0.001795, x1 = 0.002152 | 0.681
293.15 K, x2 = 0.001796, x1 = 0.001254 | 0.441
293.15 K, x2 = 0.001796, x1 = 0.001673 | 0.556
293.15 K, x2 = 0.001797, x1 = 0.0007892 | 0.308
298.15 K, x2 = 0.0008935, x1 = 0.007393 | 1.7
298.15 K, x2 = 0.0008938, x1 = 0.007063 | 1.66
298.15 K, x2 = 0.0008942, x1 = 0.006681 | 1.62
298.15 K, x2 = 0.0008945, x1 = 0.006273 | 1.57
298.15 K, x2 = 0.0008949, x1 = 0.005831 | 1.52
298.15 K, x2 = 0.0008954, x1 = 0.005351 | 1.46
298.15 K, x2 = 0.0008959, x1 = 0.004824 | 1.38
298.15 K, x2 = 0.0008964, x1 = 0.004243 | 1.28
298.15 K, x2 = 0.0008969, x1 = 0.003614 | 1.15
298.15 K, x2 = 0.0008976, x1 = 0.002905 | 0.986
298.15 K, x2 = 0.0008982, x1 = 0.002174 | 0.784
298.15 K, x2 = 0.0008986, x1 = 0.001726 | 0.653
298.15 K, x2 = 0.0008991, x1 = 0.001234 | 0.498
298.15 K, x2 = 0.0008995, x1 = 0.000751 | 0.336
298.15 K, x2 = 0.001786, x1 = 0.006862 | 1.62
298.15 K, x2 = 0.001787, x1 = 0.006534 | 1.58
298.15 K, x2 = 0.001788, x1 = 0.005828 | 1.49
298.15 K, x2 = 0.001788, x1 = 0.006196 | 1.54
298.15 K, x2 = 0.001789, x1 = 0.005439 | 1.44
298.15 K, x2 = 0.00179, x1 = 0.005003 | 1.38
298.15 K, x2 = 0.001791, x1 = 0.004533 | 1.31
298.15 K, x2 = 0.001792, x1 = 0.004009 | 1.21
298.15 K, x2 = 0.001793, x1 = 0.003435 | 1.08
298.15 K, x2 = 0.001794, x1 = 0.002807 | 0.937
298.15 K, x2 = 0.001795, x1 = 0.002148 | 0.761
298.15 K, x2 = 0.001796, x1 = 0.001254 | 0.492
298.15 K, x2 = 0.001796, x1 = 0.001671 | 0.623
298.15 K, x2 = 0.001797, x1 = 0.0007892 | 0.342
303.15 K, x2 = 0.0008935, x1 = 0.007383 | 1.93
303.15 K, x2 = 0.0008938, x1 = 0.007052 | 1.88
303.15 K, x2 = 0.0008942, x1 = 0.006672 | 1.82
303.15 K, x2 = 0.0008946, x1 = 0.006264 | 1.77
303.15 K, x2 = 0.000895, x1 = 0.005822 | 1.7
303.15 K, x2 = 0.0008954, x1 = 0.005343 | 1.63
303.15 K, x2 = 0.0008959, x1 = 0.004817 | 1.54
303.15 K, x2 = 0.0008964, x1 = 0.004238 | 1.43
303.15 K, x2 = 0.0008969, x1 = 0.003609 | 1.28
303.15 K, x2 = 0.0008976, x1 = 0.002902 | 1.1
303.15 K, x2 = 0.0008982, x1 = 0.00217 | 0.864
303.15 K, x2 = 0.0008986, x1 = 0.001725 | 0.717
303.15 K, x2 = 0.0008991, x1 = 0.001232 | 0.553
303.15 K, x2 = 0.0008995, x1 = 0.000751 | 0.372
303.15 K, x2 = 0.001786, x1 = 0.006852 | 1.81
303.15 K, x2 = 0.001787, x1 = 0.006525 | 1.77
303.15 K, x2 = 0.001788, x1 = 0.00582 | 1.67
303.15 K, x2 = 0.001788, x1 = 0.006185 | 1.72
303.15 K, x2 = 0.001789, x1 = 0.005432 | 1.61
303.15 K, x2 = 0.00179, x1 = 0.004996 | 1.54
303.15 K, x2 = 0.001791, x1 = 0.004527 | 1.46
303.15 K, x2 = 0.001792, x1 = 0.004004 | 1.35
303.15 K, x2 = 0.001793, x1 = 0.003429 | 1.21
303.15 K, x2 = 0.001794, x1 = 0.002804 | 1.04
303.15 K, x2 = 0.001795, x1 = 0.002146 | 0.845
303.15 K, x2 = 0.001796, x1 = 0.00167 | 0.691
303.15 K, x2 = 0.001797, x1 = 0.0007874 | 0.379
303.15 K, x2 = 0.001797, x1 = 0.001252 | 0.546
308.15 K, x2 = 0.0008936, x1 = 0.00737 | 2.19
308.15 K, x2 = 0.0008938, x1 = 0.00704 | 2.13
308.15 K, x2 = 0.0008942, x1 = 0.006659 | 2.06
308.15 K, x2 = 0.0008946, x1 = 0.006254 | 1.99
308.15 K, x2 = 0.000895, x1 = 0.005812 | 1.92
308.15 K, x2 = 0.0008954, x1 = 0.005334 | 1.81
308.15 K, x2 = 0.0008959, x1 = 0.004808 | 1.71
308.15 K, x2 = 0.0008964, x1 = 0.00423 | 1.57
308.15 K, x2 = 0.0008969, x1 = 0.003602 | 1.42
308.15 K, x2 = 0.0008976, x1 = 0.002896 | 1.19
308.15 K, x2 = 0.0008982, x1 = 0.002167 | 0.943
308.15 K, x2 = 0.0008986, x1 = 0.001721 | 0.784
308.15 K, x2 = 0.0008991, x1 = 0.00123 | 0.608
308.15 K, x2 = 0.0008995, x1 = 0.0007492 | 0.414
308.15 K, x2 = 0.001786, x1 = 0.006839 | 2.07
308.15 K, x2 = 0.001787, x1 = 0.006512 | 2.02
308.15 K, x2 = 0.001788, x1 = 0.00581 | 1.87
308.15 K, x2 = 0.001788, x1 = 0.006175 | 1.95
308.15 K, x2 = 0.001789, x1 = 0.005421 | 1.79
308.15 K, x2 = 0.00179, x1 = 0.004987 | 1.71
308.15 K, x2 = 0.001791, x1 = 0.004518 | 1.62
308.15 K, x2 = 0.001792, x1 = 0.003997 | 1.48
308.15 K, x2 = 0.001793, x1 = 0.003424 | 1.34
308.15 K, x2 = 0.001794, x1 = 0.002798 | 1.14
308.15 K, x2 = 0.001795, x1 = 0.002143 | 0.914
308.15 K, x2 = 0.001796, x1 = 0.001666 | 0.743
308.15 K, x2 = 0.001797, x1 = 0.0007874 | 0.427
308.15 K, x2 = 0.001797, x1 = 0.001249 | 0.603
